Active and inactive are the calls of the source. No rule for the calls is given here.
Test system: INS-1E Gaussia luciferase insulin secretion, no glucose, luminescence
Test: insulin secretion activators without glucose, dose response, counter-screen for glucose-dependent insulin secretion activators, cell-based, INS-1E, Gaussia luciferase, luminescence, cherry-pick (AID 977606)

Structure (SMILES) | AC40
COc1ccc(C[C@H]2CN3C(=NC[C@@H]3Cc3ccccc3)N2CCNC(=O)CCC2CCCCC2)cc1 | 13.5 µM
N#Cc1sc2nc(N3CCCCC3)c3c(c2c1N)CCCC3 | 21.2 µM
O=C(Cn1nnc(-c2ccccc2)n1)N=Nc1c(O)[nH]c2ccccc12 | 8.24 µM
COC(=O)C1=C(C)N(Cc2cccc(C(F)(F)F)c2)C(=NCc2ccc(OC)cc2)NC1c1cccc(Cl)c1 (centres undefined) | 5.16 µM
CCOC(=O)c1ccccc1NC(=O)c1n[nH]c(=O)c2ccccc12 | 3.05 µM
OC(CNCCc1ccc(C(F)(F)F)cc1)COc1cccc2ccccc12 (centres undefined) | 4.92 µM
COc1cc(OC)c2c3c(c(C4CCCCC4)nc2c1)CCC3 | 7.44 µM
CCCCc1c(-c2ccccc2OC)ncn1Cc1ccccc1C | 11.3 µM
CC(C)(c1ccccc1)c1ccc(OCC(O)CNC2CCN(Cc3ccccc3)CC2)cc1 (centres undefined) | 5.4 µM
Nc1nc(N)c2cc(Sc3ccc(Cl)cc3)ccc2n1 | 9.55 µM
NC(N)=N/N=C/c1ccc(OCc2ccccc2Cl)cc1 | 12.3 µM
CC(=O)Oc1ccccc1C(=O)OCCN=C1NS(=O)(=O)c2ccccc21 | > 35 µM (inactive)
C[C@@H]1CN([C@@H](C)CO)C(=O)c2cc(Br)cnc2O[C@H]1CN(C)C(=O)C1CC1 | > 35 µM (inactive)
CS(=O)(=O)N1CCN(c2ccc(NC(=O)c3ccc(-c4ccc(Cl)cc4)o3)cc2)CC1 | 9.12 µM
CCOC(=O)c1cnc2c(Cl)c(Cl)ccc2c1NCCN1CCOCC1 | 26.5 µM
CC1(C(=O)NS(=O)(=O)c2ccc(Cl)s2)CCN1C(=O)C1(c2ccccc2)CCCC1 (centres undefined) | 9.9 µM
CCSc1ccc2nnc(-c3ccc(F)cc3)n2n1 | 17.9 µM
O=C(Cn1ncc(Cl)c(Cl)c1=O)Nc1ccc2c(c1)OCO2 | 8.01 µM
Fc1cccc(-c2ccc(C3[C@@H]4CN(Cc5ccccc5F)C[C@H]3N4)cc2)c1 (some centres undefined) | 6.11 µM
CCCCCCCOC(=O)c1nc(Cl)c(Cl)c(N)c1Cl | 8.89 µM
Cc1c(C)c2c(OCC(=O)O)cc3c(c2oc1=O)CCC(C)(C)O3 | 22 µM
CC(=O)N(/N=C/c1cccc(C)c1)c1nc(-c2ccc(Br)cc2)cs1 | 2.15 µM
CN(C)CCCNc1cc(C(C)(C)C)nc2c(-c3ccc(Cl)cc3)cnn12 | 3.6 µM
Nn1c(-c2ccccc2)cc(-c2ccccc2)cc1=O | > 35 µM (inactive)
COc1ccccc1CCn1cnc(-c2cccc(F)c2)c1CC(C)C | 8.26 µM
CCCCc1c(-c2ccccc2OC)ncn1Cc1ccc(C)cc1 | 11.9 µM
N#Cc1cccc(-c2ccc(C3[C@H]4CNC[C@@H]3N4Cc3cc(-c4ccccc4)on3)cc2)c1 (some centres undefined) | 9.78 µM

Structure (SMILES) | AC40
CCOC(=O)c1cc(-c2ccc(Cl)s2)nc2c1c(C)nn2C | 13.6 µM
COc1ccc(C#Cc2ccc([C@@H]3[C@H](CO)N4CCCCN(Cc5ccccc5F)C[C@@H]34)cc2)cc1 | 9.33 µM
CCOC(=O)c1cc2sccc2n1CC(=O)N1c2ccccc2CC1C (centres undefined) | 5.99 µM
CCOc1ccc2nc(NCCNC(=O)Nc3ccccc3)c(C#N)cc2c1 | 8.22 µM
N#Cc1cccc(Oc2ccc(-c3cnc4ccccc4n3)cc2)c1C#N | 9.37 µM
CC(C)(C)c1nc2ccc(Cl)cn2c1CC1CCCCC1 | 13.2 µM
Cc1cc(NC(=O)c2cc(-c3cccc(Cl)c3)on2)no1 | 20.7 µM
CN(Cc1c(C(=O)N/N=C/c2ccccc2O)nnn1-c1nonc1N)C1CCCCC1 | 5.83 µM
CCCCc1c(-c2ccc(F)cc2F)ncn1CCc1ccccc1OC | 5.38 µM
CC(=O)c1nn(-c2ccc(Br)cc2)cc1C(=O)c1ccccc1 | 22.1 µM
COc1ccc(N2CCN(c3ccc(NC(=O)C4CCCCC4)cc3C#N)CC2)cc1 | 3.22 µM
CCC(C)c1ccccc1OCCCN(C)Cc1ccccc1 (centres undefined) | 9.93 µM
O=C(NN=Cc1ccccc1Cl)c1cccc2ccccc12 | 7.18 µM
Cc1cccc(S(=O)(=O)N2C[C@@H]3N[C@H](C2)C3c2ccc(-c3ccccc3F)cc2)c1 (some centres undefined) | 2.91 µM
Cc1cc(C)c2nc(N(CCCN(C)C)C(=O)c3ccc4c(c3)CCCC4)sc2c1 | 7.77 µM
Cc1cc(C)cc(OCCCN2CCC(C(O)(c3ccccc3)c3ccccc3)CC2)c1 | 6.87 µM
CC(C)n1nc(C(=O)Nc2ccccc2N2CCOCC2)c2ccccc2c1=O | 6.12 µM
CCCCCCn1c(N(CC)CC)nc2c1c(=O)[nH]c(=O)n2C | 30.8 µM
CCC(C)Sc1cccc(-c2nc3cnccn3c2NC2CCCCC2)c1 (centres undefined) | 4.26 µM
O=C(Nc1nc(-c2ccc(-c3ccccc3)cc2)cs1)C1=COCCO1 | 4.37 µM
Cc1ccc2oc(-c3ccc(NC(=O)c4ccc5c(c4)OCO5)cc3)nc2c1 | 1.1 µM
Cc1nnn(-c2nonc2N)c1C(=O)N/N=C/c1cccc2ccccc12 | 6.5 µM
C=CCn1c(=NC(=O)c2cc(Cl)sc2Cl)sc2cc(S(N)(=O)=O)ccc21 | 4.47 µM
COc1cc(CN2[C@@H]3CNC[C@H]2C3c2ccc(/C=C/c3ccccc3)cc2)cc(OC)c1 (some centres undefined) | 9.7 µM
Cc1ccc(C(OCC(O)CNCc2ccc(F)cc2)c2ccccc2)cc1 (centres undefined) | 8.22 µM
Cc1nn(-c2ccccc2)c2nc(C(F)F)cc(C(F)F)c12 | 30.4 µM
NS(=O)(=O)c1ccc(NC(=O)COC(=O)c2cn(-c3ccccc3)nc2-c2ccc(F)cc2)cc1 | 4.09 µM
